One series in a line: Plasma release study. It is filed as in vitro ADME. To be noted: 37° C. The protocol:
The plasma was placed in a CO2 incubator at 3% CO2 at 42% relative humidity to reach a pH of 7.4.
Gemcitabine HCl (28.5 mg) was dissolved in Milli Q water and the resulting stock solution transferred to a 5 mL volumetric flask and diluted to provide working standard solutions.
The plasma release study was conducted by adding 1 mL of plasma (centrifuged and filtered) to 0.2 mL of dendrimer solution (approximately 2 mg/mL gemcitabine equivalent in miliQ water) for example dendrimers and a comparator. The mixtures were vortexed (30 sec) then incubated at 37° C. 5% CO2. At various timepoints aliquots (0.1 mL) were removed and added to ACN (0.2 mL). The resulting mixtures were vortexed (30 s), centrifuged (10 min, 4° C.), filtered and analysed by HPLC (C8 Xbridge, 3×100 mm, […], 0.4 mL/min., gradient: 5% ACN/H2O) (0-1 min), 5-80% ACN (1-7 min), 80% ACN (7-12 min), 80-5% ACN (12-13 min), 5% ACN (13-15 min), 100 mM ammonium formate buffer, column temperature 50° C., sample tray 4° C., 260 nm.

For the next series, the system named is A549 cells. Briefly: alamarBlue viability assay, GI50. Particulars: 72 h, given in μM Gemcitabine. It is filed as cell-based, human. The protocol: (§1) A study was carried out to determine the ability of example dendrimers to inhibit growth of cancer cell lines using an alamarBlue viability assay (Thermo Fisher, DAL1025).
(§2) The cytotoxicity of compounds toward MDA-MB-231, A549, H460, BxPC3 and CAPAN-1 cells were evaluated for viability. Cells were seeded at a density of 1.2-5×10^3 cells, dependent on cell growth rate, in 96 well plates and incubated overnight. Cells were then treated with serial dilutions of test compositions for 72 h (MDA-MB-231, A549 and H460 lines) or 144 h (BxPC3 and CAPAN-1 lines). For cell viability analysis, 10% media volume of alamar Blue was added during the final 6-8 h of incubation. Reduction of alamarBlue in living cells yields a red fluorescent metabolite that can be read on a plate reader (560 nm excitation/610 nm emission.). Cell viability and subsequent GI50 values were was determined from the blank corrected dose-response curves, with 4-parameter nonlinear curve fit, in GraphPad Prism.
(Alamar Blue is a resazurin reagent that responds to reducing activity.)

The next series has as its system CAPAN-1 cells. Briefly: alamarBlue viability assay, GI50. It is filed as cell-based, human. To be noted: 144 h, given in μM Gemcitabine. The method, then: as §1, §2
The test system of a further series is BxPC3 cells. As to the kind of experiment: alamarBlue viability assay, GI50. It is filed as cell-based. Particulars: BxPC-3, 144 h, given in μM Gemcitabine. The method, then: as §1, §2
The next series relates to H460 cells. As to the kind of experiment: alamarBlue viability assay, GI50. Type of series: cell-based. To be noted: given in μM Gemcitabine. The method, then:
as §1, §2

For a further series, the system named is MDA-MB-231 cells. Briefly: alamarBlue viability assay, GI50. To be noted: 72 h, given in μM Gemcitabine. It is filed as cell-based. The method, then:
as §1, §2

For series [1], the system named is CAPAN-1 tumour xenografts. Briefly: CAPAN-1 mouse xenograft, alone or with Abraxane or DEP-DTX (Examples 13a, 13b). Type of series: in vivo. To be noted: day 29; i.v.; Gemcitabine 120, Abraxane 40, 3 at 6.5, 6 at 5 (day 1) then 4, DEP-DTX 24 (10 in combination) mg/kg. The protocol:
Mice were inoculated and tumours sized as described above. On day nineteen after implantation, mice with similar sized tumours (mean tumour volume 100 mm^3) were randomised into 7 groups of 10 animals. […] Abraxane® was dissolved in saline solution immediately prior to dosing.
Abraxane®, gemcitabine and dendrimers were administered at days 1, 10, and 17 via tail vein i.v. injection, at 0.1 ml/10 g body weight.
In an extension of Example 13a, two additional groups of mice were prepared and dosed to assess the anti-tumour efficacy properties of a taxane-dendrimer combined with a nucleoside analogue-dendrimer (e.g. 6). Mice were inoculated and tumours sized as described above.
Dendrimers were administered weekly via tail vein i.v. injection, at 0.1 ml/10 g body weight for 3 weeks.
All statistical analyses were performed using GraphPad Prism 8.1.

In series [2] the test system is CAPAN-1 tumour xenografts. As to the kind of experiment: CAPAN-1 mouse xenograft pancreatic cancer model, efficacy vs gemcitabine (Example 11). Type of series: in vivo. Particulars: for survival compared to Gemcitabine (Kaplan-Meier): P<0.0001 Mantel Cox, Gemcitabine 120 mg/kg; for Tumour Growth inhibition (%) v vehicle: day 29, Gemcitabine 120, 1 at 2, 4 at 5, 2 at 5, 5 at 3 mg/kg; for Tumour Growth inhibition (%) v vehicle / effect on CAPAN-1 tumours over the dosing study (FIG. 4): i.v. twice weekly for 3 weeks; for effect on CAPAN-1 tumours over the dosing study (FIG. 4): 4 at 5, 2 at 5, 5 at 3 mg/kg. The protocol:
A CAPAN-1 (human pancreatic adenocarcinoma cell line) mouse xenograft pancreatic cancer model study was carried out to assess the anti-tumour efficacy properties of example dendrimers compared to gemcitabine.
Compounds 1, 4, 2 and 5 were prepared by dissolving in sterile saline solution immediately prior to dosing and. Gemcitabine ((DBL™ Gemcitabine injection, Hospira Pty Ltd.) was further diluted in saline solution prior to dosing.
Female NOD-SCID Interleukin-2 receptor gamma chain null mice (aged 9 weeks) were inoculated subcutaneously on the flank with 5×10^6 CAPAN-1 cells in PBS:Matrigel (1:1). Mice were weighed and tumours measured twice weekly using electronic callipers. Tumour volume (mm^3) was calculated as length (mm)/2×width (mm)^2. On day seventeen after implantation, mice with similar sized tumours (mean tumour volume 100 mm^3) were randomised into 6 groups of 10 animals.
Compounds were administered via tail vein i.v. injection, twice weekly at […] for 3 weeks. Groups were dosed as follows: • 1. Saline—vehicle • 2. Gemcitabine (120 mg/kg, i.v.) • 3. 1 (2 mg/kg, i.v.) • 4. 4 (5 mg/kg, i.v.) • 5. 2 (5 mg/kg, i.v.) • 6. 5 (3 mg/kg, i.v.)
Tumour growth inhibition was analysed at day 29 (where all vehicle animals remained in the study) using one-way ANOVA followed by Dunnett's multiple comparison test. Tumour growth curves of gemcitabine and DEP-gemcitabine were compared over 47 days (when all treatment group animals remained in the study for tumour-related endpoints) using a mixed-effects model followed by Tukey's multiple comparison test. […] All statistical analysis was performed using GraphPad Prism 8.1.

The test system of series [3] is CAPAN-1 tumour xenografts. As to the kind of experiment: CAPAN-1 mouse xenograft, dosing regimen study (Example 12). It is filed as in vivo. To be noted: 5 mg/kg i.v. weekly for 3 weeks compared to 2 mg/kg i.v. biweekly for 3 weeks. The protocol: A CAPAN-1 (human pancreatic adenocarcinoma cell line) mouse xenograft pancreatic cancer model was established to assess the effects of weekly compared to biweekly administration of an example dendrimer.
Compound 1 was prepared as described above. Mice were inoculated and tumours sized as described above. On day seventeen after implantation, mice with similar sized tumours (mean tumour volume 140 mm^3) were randomised into 2 groups of 5 animals: • 1. 1 (5 mg/kg, i.v.) weekly for 3 weeks; and • 2. 1 (2 mg/kg, i.v.) biweekly for 3 weeks.

For orientation: GI50 means the concentration giving 50% growth inhibition. Take “[BHA Lys][Lys]30[Lys]32 [Compound 6, [BHA Lys][Lys]30[Lys]32 [(α-NH-DGA-Gemcitabine)32 (ε-NHPEG˜2100)32]]”: the “Human Plasma % release” value is listed as 0.49% in “Plasma release study” (0 h); 9.94% in the series “Plasma release study” (2 h); 18.18% in “Plasma release study” (4 h); 39.84% in the series “Plasma release study” (6 h); 71.13% in the series “Plasma release study” (24 h); 77.98% in the series “Plasma release study” (30 h). The GI50 with A549 cells was 0.045 µM; in the series with CAPAN-1 cells it was 0.006 µM; in the series with BxPC3 cells, 0.001 µM; with H460 cells (72 h) it was 0.056 µM; with MDA-MB-231 cells, 0.005 µM. Besides, the “Tumour Growth inhibition (%) v vehicle at day 29” value in series [1] amounted to 83%.
As for “[BHA Lys][Lys]30[Lys]32 [Compound 5, [BHA Lys][Lys]30[Lys]32 [(α-NH-DGA-Gemcitabine)32 (ε-NHPEG˜1100)32]]”, the GI50 was 0.044 µM with A549 cells, 0.003 µM with CAPAN-1 cells, 0.046 µM with H460 cells (72 h) and 0.003 µM in the series on MDA-MB-231 cells. Also, the “survival compared to Gemcitabine (Kaplan-Meier)” value (“survival compared to Gemcitabine” for short) in series [2] was “significantly extended survival beyond that of Gemcitabine”. In series [2], the “Tumour Growth inhibition (%) v vehicle” value was 94%. Also, the “effect on CAPAN-1 tumours over the dosing study (FIG. 4)” value (shortened to “effect … over the dosing study (FIG. 4)”) in [2] is “complete stasis”.
With “[BHA Lys][Lys]30[Lys]32 [Compound 2, [BHA Lys][Lys]30[Lys]32 [(α-NH-TDA-Gemcitabine)32 (ε-NHPEG570)32]]”, the GI50 with A549 cells amounted to 0.034 µM; in the series on CAPAN-1 cells, 0.021 µM; in the series with H460 cells (72 h), 0.412 µM; with MDA-MB-231 cells, 0.004 µM. For the same molecule, in series [2], the “survival compared to Gemcitabine” value was “significantly extended survival beyond that of Gemcitabine”. In series [2], the “Tumour Growth inhibition (%) v vehicle” value worked out at 94%. Moreover, in series [2], the “effect … over the dosing study (FIG. 4)” value is on record as “complete stasis”.
“[BHA Lys][Lys]30[Lys]32 [Compound 4, [BHA Lys][Lys]30[Lys]32 [(α-NH-DGA-Gemcitabine)32 (ε-NHPEG˜570)32]]”: the GI50 was determined as 0.031 µM in the series on A549 cells; 0.011 µM in the series on CAPAN-1 cells; 0.013 µM in the series with BxPC3 cells; 0.061 µM in the series with H460 cells (72 h); 0.003 µM in the series on MDA-MB-231 cells. The “survival compared to Gemcitabine” value in [2] was “significantly extended survival beyond that of Gemcitabine”. Moreover, in [2], the “Tumour Growth inhibition (%) v vehicle” value turned out to be 91%. Further, the “effect … over the dosing study (FIG. 4)” value in [2] was “complete stasis”.
On to `Nc1ccn([C@@H]2O[C@H](CO)[C@@H](O)C2(F)F)c(=O)n1` [Gemcitabine, gemcitabine, reference compound], for which the GI50 in the series on A549 cells (Homo sapiens) is 0.011 µM; with CAPAN-1 cells (Homo sapiens) it was 0.009 µM; with BxPC3 cells (Homo sapiens), 0.009 µM; in the series on H460 cells (Homo sapiens, NCI-H460, 72 h) it was 0.042 µM; with MDA-MB-231 cells (Homo sapiens) it was 0.004 µM. The “Tumour Growth inhibition (%) v vehicle” value in series [2] turned out to be 84%. Further, in [1], the “Tumour Growth inhibition (%) v vehicle at day 29” value is on record as 59%.
In the case of “[BHA Lys][Lys]30[Lys]32 [Compound 1, [BHA Lys][Lys]30[Lys]32 [(α-NH-TDA-Gemcitabine)32 (ε-NHPEG˜1100)32]]”, the GI50 in the series with A549 cells was 0.051 µM; in the series with CAPAN-1 cells, 0.033 µM; in the series on BxPC3 cells, 0.007 µM; in the series on H460 cells (72 h) it was 0.215 µM. Besides, the “Tumour Growth inhibition (%) v vehicle” value in [2] worked out at 75%. For the same molecule, the “suppression of tumour growth, weekly vs biweekly regimen (FIG. 5)” value in [3] is “more effective at suppressing tumour growth than 1, given biweekly at 2 mg/kg”.
Regarding “[BHA Lys][Lys]30[Lys]32 [Compound 8, [BHA Lys][Lys]30[Lys]32 [(α-NH-Glu-Gemcitabine)32 (ε-NHPEG˜2100)32]]”, the “Human Plasma % release” value was −0.17% in the series “Plasma release study” (0 h); 0.22% in “Plasma release study” (2 h); −1.99% in “Plasma release study” (4 h); 3.02% in “Plasma release study” (6 h); 6.19% in the series “Plasma release study” (24 h); 5.39% in the series “Plasma release study” (30 h). The GI50 in the series on A549 cells is 0.5 µM; with MDA-MB-231 cells it was 0.103 µM.
Turning to “BHALys[Lys]32[α-TDA-DTX]32[ε-PolyPEG2000]32 [DEP-DTX, reference compound]”, the “Tumour Growth inhibition (%) v vehicle at day 29” value in series [1] is 108%.

For the origin of these results see patent US12616711B2, “Therapeutic dendrimer” (Starpharma Pty Ltd, priority 2019, dated 2026).
